# Data taken from patent publication US12428377B2, “Sodium-hydrogen exchanger 3 inhibitor compounds” (Eli Lilly and Company, priority 2019, dated 2025).
# Tests used:
# NPT2b = biological target: T1, NPT2b (Homo sapiens, UniProt O95436); assay: NPT2b inhibition (selectivity)
# T1 sequence (O95436 1-690): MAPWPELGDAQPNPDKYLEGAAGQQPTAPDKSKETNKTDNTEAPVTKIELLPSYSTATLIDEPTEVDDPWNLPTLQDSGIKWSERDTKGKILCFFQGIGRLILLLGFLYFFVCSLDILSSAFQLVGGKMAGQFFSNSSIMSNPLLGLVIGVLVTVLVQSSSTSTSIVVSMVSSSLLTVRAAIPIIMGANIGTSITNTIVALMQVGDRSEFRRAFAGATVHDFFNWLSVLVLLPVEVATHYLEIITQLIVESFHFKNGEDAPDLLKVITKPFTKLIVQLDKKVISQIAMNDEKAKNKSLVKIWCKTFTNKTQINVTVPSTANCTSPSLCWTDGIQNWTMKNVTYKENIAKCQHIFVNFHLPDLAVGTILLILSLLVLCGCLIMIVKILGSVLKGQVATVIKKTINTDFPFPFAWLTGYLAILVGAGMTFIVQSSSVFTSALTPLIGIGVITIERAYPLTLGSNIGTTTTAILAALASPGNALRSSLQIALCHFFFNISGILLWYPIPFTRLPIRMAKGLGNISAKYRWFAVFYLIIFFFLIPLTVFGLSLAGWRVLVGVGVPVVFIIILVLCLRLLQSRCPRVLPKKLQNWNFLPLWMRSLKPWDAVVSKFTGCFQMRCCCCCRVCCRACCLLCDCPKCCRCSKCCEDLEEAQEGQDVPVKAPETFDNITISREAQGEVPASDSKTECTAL
# SGLT1 = biological target: T2, SGLT1 (Homo sapiens, UniProt P13866); assay: SGLT1 inhibition (selectivity)
# T2 sequence (P13866 1-664): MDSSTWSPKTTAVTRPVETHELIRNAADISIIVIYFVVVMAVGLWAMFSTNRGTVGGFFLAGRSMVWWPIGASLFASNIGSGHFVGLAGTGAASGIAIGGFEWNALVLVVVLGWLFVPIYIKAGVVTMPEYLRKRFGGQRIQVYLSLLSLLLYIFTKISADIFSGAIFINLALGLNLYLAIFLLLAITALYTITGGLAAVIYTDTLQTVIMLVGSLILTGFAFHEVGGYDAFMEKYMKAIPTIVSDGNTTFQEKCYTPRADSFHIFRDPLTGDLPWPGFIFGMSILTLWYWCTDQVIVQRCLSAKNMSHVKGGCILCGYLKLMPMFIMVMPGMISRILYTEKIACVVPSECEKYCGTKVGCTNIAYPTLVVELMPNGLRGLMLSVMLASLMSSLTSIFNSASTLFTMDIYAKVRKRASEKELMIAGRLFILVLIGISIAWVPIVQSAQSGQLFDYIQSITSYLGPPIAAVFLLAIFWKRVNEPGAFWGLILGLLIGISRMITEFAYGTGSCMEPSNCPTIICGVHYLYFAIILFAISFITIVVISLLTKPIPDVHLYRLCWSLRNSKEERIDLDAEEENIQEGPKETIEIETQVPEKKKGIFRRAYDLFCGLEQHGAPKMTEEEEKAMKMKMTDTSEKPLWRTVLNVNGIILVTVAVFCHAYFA
# male Sprague Dawley rats = assay: Phosphate absorption 15 min after radiolabeled phosphate (Example 2, Compound A, combination); assay type: in vivo, rat; conditions: Example 2 0.4 mg/kg, plasma 15 min after radiolabeled phosphate, P=0.046 versus vehicle control
# Experimental: Effect of Example 2 in Combination with an NPT2b Inhibitor (Compound A) on Phosphate Absorption and Intestinal Phosphate Retention in Rats
# The purpose of this study is to investigate in rats the effect of Example 2, Compound A, and an Example 2/Compound A combination on phosphate absorption 15 min after dosing the compounds and the phosphate retained in the intestine 4.25 h after dosing the compounds. The latter is a measure of the oral phosphate load which is absorbed over an extended period.
# Two vehicles are used in this study: 1) 1% HEC and 2) 0.46% poly-1-vinylpyrrolidone-co-vinyl acetate in water (PVP-VA vehicle). The vehicle control group in this study receives a 1:1 combination of the two vehicles.
# The Example 2, Compound A and phosphate dosing solutions are prepared similarly as described above, except the doses are 0.4 mg/kg for Example 2 and 10 mg/kg for Compound A and they are prepared at a concentration where they would be dosed in a 5 mL/kg volume. […]
# Male Sprague Dawley rats are fasted 4 h and then administered appropriate vehicles, 10 mg/kg Compound A, 0.4 mg/kg Example 2, or a combination of both compounds. […] Radioactivity in plasma is measured by scintillation counting and used to calculate the inhibition of phosphate absorption. […] Statistical significance is determined by ANOVA with a Dunnett's comparison to the Example 2/Compound A combination using JMP 12.1.
smiles,measurement,setting,value
"CN1Cc2c(Cl)cc(Cl)cc2[C@H](c2cccc(S(=O)(=O)NCCOCCOCCN/C(=N\C(N)=O)NCCCCN/C(=N/C(N)=O)NCCOCCOCCNS(=O)(=O)c3cccc([C@@H]4CN(C)Cc5c(Cl)cc(Cl)cc54)c3)c2)C1.Cl.Cl [Example 2, [[4-[[N′-Carbamoyl-N-[2-[2-[2-[[3-[(4S)-6,8-dichloro-2-methyl-3,4-dihydro-1H-isoquinolin-4-yl]phenyl]sulfonylamino]ethoxy]ethoxy]ethyl]carbamimidoyl]amino]butylamino]-[2-[2-[2-[[3-[(4S)-6,8-dichloro-2-methyl-3,4-dihydro-1H-isoquinolin-4-yl]phenyl]sulfonylamino]ethoxy]ethoxy]ethylamino]methylene]urea dihydrochloride]",IC50,NPT2b,58.4 µM
same,IC50,SGLT1,6.6 µM
same,Inhibition of phosphate absorption,male Sprague Dawley rats,29%
